Experimental data: US20220235049A1, “SUBSTITUTED PYRROLO [2, 3-b] PYRIDINE AND PYRAZOLO [3,4-b] PYRIDINE DERIVATIVES AS PROTEIN KINASE INHIBITORS” (Fochon Pharmaceuticals, Ltd., priority 2019, published 2022)
pIC50: −log10 of the molar value. Like-named read-outs stand apart in the source and are kept apart here.

Legend:
DOHH2 cells = test: Cell proliferation assay in DOHH2 cells (MTS); assay type: cell-based
In short: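 DOHH2 cells at 5000/well were treated with compound at 1.5–10000 nM for 120 h at 37 °C, as a proxy for BTK inhibition. Proliferation was read by MTS for 2 h, stopped with SDS, and absorbance measured at 490 nm with 650 nm reference; IC50 was fitted from the curve.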

BTK (C481S) = biological target: T1, BTK (C481S) (Homo sapiens, UniProt Q06187, C481S); test: Kinase assay of BTK (C481S), [33P]-ATP filter-binding, at Reaction Biology Corporation; assay type: biochemical; settings: 10 μM ATP, 20 min preincubation, 120 min reaction
T1 construct: purchased SignalChem B10-12CH
Protocol: The kinase activity of BTK (C481S) was assayed at Reaction Biology Corporation. The substrate in the BTK (C481S) reaction, pEY (poly[Glu:Tyr] (4:1)) (Sigma, Cat. #P7244-250MG), was prepared in fresh reaction buffer (20 mM Hepes (pH 7.5), 10 mM MgCl2, 1 mM EGTA, 0.02% Brij35, 0.02 mg/ml BSA, 0.1 mM Na3VO4, 2 mM DTT, 1% DMSO). BTK(C481S) (SignalChem, Cat. #B10-12CH) was delivered into the substrate solution and mixed gently. The final concentrations of BTK (C481S) and the substrate in the reaction mixture were 6 nM and 0.2 mg/ml, respectively. Compounds were tested in 10-point concentration/response mode with 3-fold serial dilution steps starting at 1 μM.
Compounds in 100% DMSO were delivered into the kinase reaction mixture by acoustic liquid delivery technology (Echo550; nanoliter range) and incubated for 20 min at room temperature. 10 μM [^33P]-ATP (ATP: Sigma, Cat #: A7699; [^33P]-ATP: Hartmann Analytic, Cat #: SCF-301-12) was delivered into the reaction mixture to initiate the reaction. The mixture was incubated for 120 min at room temperature. Radioactivity was detected utilizing a proprietary filter-binding method. Kinase activity data were expressed as the percent remaining kinase activity in test samples compared to vehicle (DMSO) reactions. IC50 values were obtained using GraphPad Prism software.
Select compounds prepared as described above were assayed according to the biological procedures described herein.

[1] = Pharmacokinetics in male Sprague-Dawley rats; assay type: in vivo; settings: rat; for AUC(0-inf) / AUC(0-t) / clearance / half-life / Cmax / MRT last / Vd / Tmax: male, Sprague-Dawley, plasma; for Cmax: read-out: Cmax/C0; for MRT last: read-out: MRT0-t; for Vd: read-out: Vdss
Protocol: The purpose of this study was to determine the pharmacokinetics of Example 71 and Example 75 in male Sprague-Dawley rats (Supplied by Beijing Vital River Laboratory Animal Technology Co., Ltd.).
Animals in Group 1 were administered with Example 71 by single intravenous bolus injection at 1 mg/kg, which was formulated in 60% Phosal 50 PG (Lipoid, Batch #368315-3180028/009): 30% PEG400 (Sigma, Batch #MKCH6281): 10% Ethanol (Merck, Batch #K48244883634) at 1 mg/mL as a solution. Animals in Group 2 were administered with Example 71 by single oral gavage (PO) administration at 5 mg/kg, which was formulated in 60% Phosal 50 PG (Lipoid, Batch #368315-3180028/009): 30% PEG400 (Sigma, Batch #MKCH6281): 10% Ethanol (Merck, Batch #K48244883634) at 1 mg/mL as a solution. Blood samples were collected at 0.083, 0.25, 0.5, 1, 2, 4, 8, 12 and 24 hours post-dose. Concentrations of Example 71 in plasma were determined by LC/MS/MS (LC: Waters UPLC; MS: API4000).
Animals in Group 3 were administered with Example 75 by single intravenous bolus injection at 2 mg/kg, which was formulated in 10% DMSO (Sigma, Batch #LPC0S181): 60% PEG400 (Sigma, Batch #MKCH6281): 30% water at 2 mg/mL as a solution. Animals in Group 4 were administered with Example 75 by single oral gavage (PO) administration at 10 mg/kg, which was formulated in 10% DMSO (Sigma, Batch #LPC0S181): 60% PEG400 (Sigma, Batch #MKCH6281): 30% water at 2 mg/mL as a solution. Blood samples were collected at 0.083, 0.25, 0.5, 1, 2, 4, 8, 12 and 24 hours post-dose. Concentrations of Example 75 in plasma were determined by LC/MS/MS (LC: Waters UPLC; MS: Triple Quad 6500 plus).

T1 sequence (Q06187 whole entry C481S): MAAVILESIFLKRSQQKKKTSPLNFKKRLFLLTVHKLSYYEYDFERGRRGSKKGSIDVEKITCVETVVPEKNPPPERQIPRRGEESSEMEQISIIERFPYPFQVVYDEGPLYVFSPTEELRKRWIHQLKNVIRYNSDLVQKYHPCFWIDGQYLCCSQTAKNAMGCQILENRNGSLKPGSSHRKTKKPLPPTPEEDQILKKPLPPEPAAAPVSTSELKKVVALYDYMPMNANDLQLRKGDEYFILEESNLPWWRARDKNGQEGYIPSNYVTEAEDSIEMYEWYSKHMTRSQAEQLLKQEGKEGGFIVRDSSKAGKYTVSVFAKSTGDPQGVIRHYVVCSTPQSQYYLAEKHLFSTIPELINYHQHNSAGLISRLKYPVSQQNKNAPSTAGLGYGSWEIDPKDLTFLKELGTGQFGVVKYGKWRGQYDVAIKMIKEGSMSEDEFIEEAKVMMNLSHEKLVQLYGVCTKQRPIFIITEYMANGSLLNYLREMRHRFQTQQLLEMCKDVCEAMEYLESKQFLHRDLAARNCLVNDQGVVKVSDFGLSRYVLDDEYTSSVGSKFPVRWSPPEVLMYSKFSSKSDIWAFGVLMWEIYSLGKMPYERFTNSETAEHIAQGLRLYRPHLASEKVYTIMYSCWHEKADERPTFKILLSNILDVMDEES

## CCOc1cnc2[nH]cc(C(=O)c3ccc(Oc4ccccc4)cc3Cl)c2c1N[C@@H]1CC[C@@H](CO)OC1 [Example 128, (2-chloro-4-phenoxyphenyl)(5-ethoxy-4-(((3R,6S)-6-(hydroxymethyl)tetrahydro-2H-pyran-3-yl)amino)-1H-pyrrolo[2,3-b]pyridin-3-yl)methanone]
DOHH2 cells; Homo sapiens, DOHH-2, 120 h
  pIC50: 9.00
BTK (C481S)
  pIC50: 9.01

## CCOc1cnc2[nH]cc(C(=O)c3ccc(Oc4ccccc4F)cc3F)c2c1N[C@@H]1CC[C@@H](CO)OC1 [Example 71, (5-ethoxy-4-(((3R,6S)-6-(hydroxymethyl)tetrahydro-2H-pyran-3-yl)amino)-1H-pyrrolo[2,3-b]pyridin-3-yl)(2-fluoro-4-(2-fluorophenoxy)phenyl)methanone]
DOHH2 cells; Homo sapiens, DOHH-2, 120 h
  pIC50: 9.00
BTK (C481S)
  pIC50: 9.11
[1]; iv, 1 mg/kg
  AUC(0-inf): 3.77 µg·h/mL
  AUC(0-t): 3.76 µg·h/mL
  clearance: 0.282 L/h/kg
  half-life: 3.07 h
  Cmax: 4.36 µg/mL
  MRT last: 1.93 h
  Vd: 0.541 L/kg
[1]; po, 5 mg/kg
  AUC(0-inf): 10.1 µg·h/mL
  AUC(0-t): 10.1 µg·h/mL
  Tmax: 4 h
  half-life: 2.74 h
  Cmax: 1.68 µg/mL
  MRT last: 5.26 h
[1]; po 5 mg/kg vs iv 1 mg/kg
  F: 53.7%

## CCOc1cnc2[nH]cc(C(=O)c3ccc(Oc4ccccc4F)cc3)c2c1N[C@@H]1CC[C@@H](CO)OC1 [Example 63, (5-ethoxy-4-(((3R,6S)-6-(hydroxymethyl)tetrahydro-2H-pyran-3-yl)amino)-1H-pyrrolo[2,3-b]pyridin-3-yl)(4-(2-fluorophenoxy)phenyl)methanone]
DOHH2 cells; Homo sapiens, DOHH-2, 120 h
  pIC50: 9.00
BTK (C481S)
  pIC50: 9.00

## COc1cnc2[nH]cc(C(=O)c3ccc(Oc4ccccc4)cc3Cl)c2c1N[C@@H]1CC[C@@H](CO)OC1 [Example 27, (2-chloro-4-phenoxyphenyl)(4-(((3R,6S)-6-(hydroxymethyl)tetrahydro-2H-pyran-3-yl)amino)-5-methoxy-1H-pyrrolo[2,3-b]pyridin-3-yl)methanone]
DOHH2 cells; Homo sapiens, DOHH-2, 120 h
  pIC50: 9.00
BTK (C481S)
  pIC50: 8.95

## CCOc1cnc2[nH]cc(C(=O)c3ccc(Oc4ccccc4)cc3C)c2c1N[C@@H]1CC[C@@H](CO)OC1 [Example 127, (5-ethoxy-4-(((3R,6S)-6-(hydroxymethyl)tetrahydro-2H-pyran-3-yl)amino)-1H-pyrrolo[2,3-b]pyridin-3-yl)(2-methyl-4-phenoxyphenyl)methanone]
DOHH2 cells; Homo sapiens, DOHH-2, 120 h
  pIC50: 9.00
BTK (C481S)
  pIC50: 9.02

## CCOc1cnc2[nH]cc(C(=O)c3ccc(Oc4ccccc4)cc3F)c2c1N[C@@H]1CC[C@@H](CO)OC1 [Example 176, (5-ethoxy-4-(((3R,6S)-6-(hydroxymethyl)tetrahydro-2H-pyran-3-yl)amino)-1H-pyrrolo[2,3-b]pyridin-3-yl)(2-fluoro-4-phenoxyphenyl)methanone]
DOHH2 cells; Homo sapiens, DOHH-2, 120 h
  pIC50: 9.00
BTK (C481S)
  pIC50: 9.34

## O=C(c1ccc(Oc2ccccc2)cc1Cl)c1c[nH]c2nccc(N[C@@H]3CC[C@@H](CO)OC3)c12 [Example 2, (2-Chloro-4-phenoxyphenyl)(4-(((3R,6S)-6-(hydroxymethyl)tetrahydro-2H-pyran-3-yl)amino)-1H-pyrrolo[2,3-b]pyridin-3-yl)methanone]
DOHH2 cells; Homo sapiens, DOHH-2, 120 h
  pIC50: 7.59
BTK (C481S)
  pIC50: 8.65

## COc1cnc2[nH]cc(C(=O)c3ccc(Oc4ccccc4F)cc3F)c2c1N[C@@H]1CC[C@@H](CO)OC1 [Example 75, (2-fluoro-4-(2-fluorophenoxy)phenyl)(4-(((3R,6S)-6-(hydroxymethyl)tetrahydro-2H-pyran-3-yl)amino)-5-methoxy-1H-pyrrolo[2,3-b]pyridin-3-yl)methanone]
DOHH2 cells; Homo sapiens, DOHH-2, 120 h
  pIC50: 9.00
[1]; iv, 2 mg/kg
  AUC(0-inf): 10.2 µg·h/mL
  AUC(0-t): 10.1 µg·h/mL
  clearance: 0.2 L/h/kg
  half-life: 2.56 h
  Cmax: 6.35 µg/mL
  MRT last: 2.43 h
  Vd: 0.489 L/kg
[1]; po, 10 mg/kg
  AUC(0-inf): 29 µg·h/mL
  AUC(0-t): 28.9 µg·h/mL
  Tmax: 2.83 h
  half-life: 2.8 h
  Cmax: 4.14 µg/mL
  MRT last: 5.58 h
[1]; po 10 mg/kg vs iv 2 mg/kg
  F: 57.1%

## Cc1cc(Oc2ccccc2F)ncc1C(=O)c1c[nH]c2ncc(F)c(N[C@@H]3CC[C@@H](CO)OC3)c12 [Example 117, (5-fluoro-4-(((3R,6S)-6-(hydroxymethyl)tetrahydro-2H-pyran-3-yl)amino)-1H-pyrrolo[2,3-b]pyridin-3-yl)(6-(2-fluorophenoxy)-4-methylpyridin-3-yl)methanone]
DOHH2 cells; Homo sapiens, DOHH-2, 120 h
  pIC50: 7.16

## CCOc1cnc2[nH]cc(C(=O)c3ccc(Oc4ccccc4)cc3F)c2c1N[C@@]12CO[C@H](CO)C1C2 (single isomer, unassigned) [Example 181]
DOHH2 cells; 120 h
  pIC50: 9.00

## COc1cc(Oc2ccccc2F)cnc1C(=O)c1c[nH]c2nccc(N[C@@H]3CC[C@@H](CO)OC3)c12 [Example 110, (5-(2-fluorophenoxy)-3-methoxypyridin-2-yl)(4-(((3R,6S)-6-(hydroxymethyl)tetrahydro-2H-pyran-3-yl)amino)-1H-pyrrolo[2,3-b]pyridin-3-yl)methanone]
DOHH2 cells; Homo sapiens, DOHH-2, 120 h
  pIC50: 7.02

## CCOc1cnc2[nH]cc(C(=O)c3ccc(Oc4ccccc4F)cc3F)c2c1N[C@@]12CO[C@H](CO)C1C2 (single isomer, unassigned) [Example 173]
DOHH2 cells; 120 h
  pIC50: 8.15
